Measured values from US20170050939A1, “SMALL MOLECULE INHIBITORS OF G PROTEIN COUPLED RECEPTOR 6 KINASE POLYPEPTIDES” (Mayo Foundation for Medical Education and Research, priority 2014, published 2017).
Like-named read-outs stand apart in the source and are kept apart here.

Molecular target: T1, GRK6, recombinant full-length GST-tagged human protein (Homo sapiens, UniProt P43250)
T1 construct: GRK6, recombinant full-length GST-tagged human protein; GST
Assay: GRK6 IC50 determination (8-point concentration-response)
Format: biochemical
From the text: Two hundred forty compounds were further characterized by determining IC50 values in a GRK6 assay. This screen has been previously described in WO 2013/063458, which is incorporated by reference in its entirety herein.

[1] = 20 nM GRK6, 12 μM ATP (Km), 1 μM Peptide 216, 7 h incubation

T1 sequence (P43250 whole entry): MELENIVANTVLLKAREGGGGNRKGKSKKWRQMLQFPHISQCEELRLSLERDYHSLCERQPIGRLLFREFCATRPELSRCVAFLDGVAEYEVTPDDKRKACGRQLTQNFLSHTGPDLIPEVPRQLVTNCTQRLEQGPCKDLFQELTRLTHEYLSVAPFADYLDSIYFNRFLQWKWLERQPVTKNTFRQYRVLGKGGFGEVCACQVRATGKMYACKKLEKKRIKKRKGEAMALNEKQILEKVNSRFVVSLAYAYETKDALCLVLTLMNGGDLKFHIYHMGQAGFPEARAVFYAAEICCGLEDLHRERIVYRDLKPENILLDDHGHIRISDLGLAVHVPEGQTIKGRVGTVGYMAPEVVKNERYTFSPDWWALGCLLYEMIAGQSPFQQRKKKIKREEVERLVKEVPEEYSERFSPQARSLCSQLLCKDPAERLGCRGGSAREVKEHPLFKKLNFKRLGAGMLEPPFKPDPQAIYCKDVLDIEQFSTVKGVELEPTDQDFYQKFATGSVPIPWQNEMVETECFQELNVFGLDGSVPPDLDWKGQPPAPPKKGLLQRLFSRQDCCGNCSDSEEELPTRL

Cc1c(-c2cc(-c3nnc(SCC(=O)O)[nH]3)cc([N+](=O)[O-])c2)ccc2[nH]c(C(N)=O)cc12 [Compound 235]
IC50: 358 nM

O=C(O)CSc1nc(-c2cc(Br)cc(-c3ccc4ccccc4c3)c2)n[nH]1 [Compound 40]
IC50: 421 nM

O=C(O)CSc1nnc(-c2cc(-c3ccoc3)cc(-c3ccc4ccccc4c3)c2)[nH]1 [Compound 56]
IC50: 686 nM

O=C(O)CSc1nnc(-c2cc(-c3cccc4cnccc34)cc([N+](=O)[O-])c2)[nH]1 [Compound 37]
IC50: 359 nM

O=C(O)CSc1nnc(-c2cccc(C(=O)Nc3cccc(Cl)c3)c2)[nH]1 [Compound 135]
IC50: 7920 nM

Cc1ccc(O)c(-c2nnc(SCC(=O)O)[nH]2)c1 [Compound 99]
IC50 [1]: 2710 nM

O=C(O)CSc1nnc(-c2cccc(-c3ccc4ccccc4c3)c2)[nH]1 [Compound 39]
IC50 [1]: 417 nM

CS(=O)(=O)Nc1ccc(-c2cc(-c3nnc(SCC(=O)O)[nH]3)cc([N+](=O)[O-])c2)cc1 [Compound 47]
IC50: 473 nM

CC(=O)Nc1cccc(-c2cc(-c3nnc(SCC(=O)O)[nH]3)cc([N+](=O)[O-])c2)c1 [Compound 42]
IC50: 431 nM

Cc1ccc(-c2cc(-c3ccc4ccccc4c3)cc(-c3nnc(SCC(=O)O)[nH]3)c2)o1 [Compound 63]
IC50: 824 nM

CCn1cc(-c2cc(-c3nnc(SCC(=O)O)[nH]3)cc([N+](=O)[O-])c2)cn1 [Compound 73]
IC50: 342 nM

CC(=O)c1cccc(-c2nnc(SCC(=O)O)[nH]2)c1 [Compound 110]
IC50 [1]: 4110 nM

O=C(O)CSc1nnc(-c2cccc(F)c2F)[nH]1 [Compound 145]
IC50 [1]: 10700 nM

O=C(O)CSc1nnc(-c2cccc(C(=O)Nc3cccc4[nH]ncc34)c2)[nH]1 [Compound 146]
IC50: 11400 nM

COc1ccc2cc(-c3cc(-c4nnc(SCC(=O)O)[nH]4)cc([N+](=O)[O-])c3)ccc2c1 [Compound 23]
IC50: 199 nM

COc1cc(-c2nnc(SCC(=O)O)[nH]2)cc(OC)c1O [Compound 140]
IC50 [1]: 8830 nM

O=C(O)CSc1nnc(-c2cc(-c3ccc4ncccc4c3)cc([N+](=O)[O-])c2)[nH]1 [Compound 19]
IC50: 180 nM

O=C(O)CSc1nnc(-c2ccc(-n3ccnc3)cc2)[nH]1 [Compound 132]
IC50 [1]: 7360 nM

Cc1cc(-c2cc(-c3ccc4ccccc4c3)cc(-c3nnc(SCC(=O)O)[nH]3)c2)cnc1C [Compound 54]
IC50: 598 nM

O=C(O)CSc1nnc(-c2cc(-c3ccc4nccnc4c3)cc([N+](=O)[O-])c2)[nH]1 [Compound 50]
IC50: 509 nM

O=C(O)CSc1nnc(-c2cc(-c3cccc4c3oc3ccccc34)cc([N+](=O)[O-])c2)[nH]1 [Compound 237]
IC50: 438 nM

COc1cc(-c2nnc(SCC(=O)O)[nH]2)ccc1OC(C)=O [Compound 144]
IC50 [1]: 9900 nM

O=C(O)CSc1nnc(-c2cc(-c3cncc(F)c3)cc(-c3ccc4ccccc4c3)c2)[nH]1 [Compound 55]
IC50: 631 nM

O=C(O)CSc1nnc(-c2cc(O)cc(O)c2)[nH]1 [Compound 127]
IC50 [1]: 6540 nM

CN(C)c1cccc(-c2cc(-c3nnc(SCC(=O)O)[nH]3)cc([N+](=O)[O-])c2)c1 [Compound 53]
IC50: 538 nM

COc1cc(-c2nnc(SCC(=O)O)[nH]2)cc(C)c1O [Compound 103]
IC50: 3300 nM

Cn1ccc2cc(-c3cc(-c4n[nH]c(SCC(=O)O)n4)cc([N+](=O)[O-])c3)cc(Cl)c21 [Compound 229]
IC50: 114 nM

O=C(O)CSc1nnc(-c2ccc3c(c2)OCCO3)[nH]1 [Compound 154]
IC50: 13400 nM

O=C(O)CSc1nnc(-c2cccc(Oc3ccccc3)c2)[nH]1 [Compound 150]
IC50: 12400 nM

CN(CCC#N)c1ccc(-c2nnc(SCC(=O)O)[nH]2)cc1 [Compound 179]
IC50 [1]: 35300 nM

COc1cc(Cl)cc(-c2cc(-c3nnc(SCC(=O)O)[nH]3)cc([N+](=O)[O-])c2)c1 [Compound 14]
IC50: 136 nM

O=C(O)CSc1nnc(-c2cc(-c3ccc(O)cc3)cc([N+](=O)[O-])c2)[nH]1 [Compound 22]
IC50: 187 nM

O=C(O)CSc1nnc(-c2ccc(N3CCCCC3)cc2F)[nH]1 [Compound 180]
IC50 [1]: 35700 nM

Cn1nccc1-c1cc(-c2nnc(SCC(=O)O)[nH]2)cc([N+](=O)[O-])c1 [Compound 88]
IC50: 1050 nM

COc1cc(F)c(-c2nnc(SCC(=O)O)[nH]2)cc1OC [Compound 172]
IC50 [1]: 23700 nM

Cn1ccc2cc(-c3cc(-c4nnc(SCC(=O)O)[nH]4)cc([N+](=O)[O-])c3)ccc21 [Compound 3]
IC50: 60 nM

COc1cc(-c2nnc(SCC(=O)O)[nH]2)cc(O)c1OC [Compound 168]
IC50 [1]: 20700 nM

CCN(CC)c1ccc(-c2nnc(SCC(=O)O)[nH]2)c(O)c1 [Compound 173]
IC50 [1]: 25800 nM

O=C(O)CSc1nnc(-c2cc(-c3ccc4[nH]ncc4c3)cc([N+](=O)[O-])c2)[nH]1 [Compound 15]
IC50: 140 nM

CS(=O)(=O)c1cccc(-c2nnc(SCC(=O)O)[nH]2)c1 [Compound 124]
IC50 [1]: 6360 nM

CCn1ccc2cc(-c3cc(-c4nnc(SCC(=O)O)[nH]4)cc([N+](=O)[O-])c3)ccc21 [Compound 11]
IC50: 118 nM

CS(=O)(=O)Nc1cccc(-c2cc(-c3nnc(SCC(=O)O)[nH]3)cc([N+](=O)[O-])c2)c1 [Compound 32]
IC50: 300 nM

O=C(O)CSc1nnc(-c2cc(-c3cccnc3)cc(-c3ccc4ccccc4c3)c2)[nH]1 [Compound 31]
IC50: 283 nM
